In brackets after ≈: the same amount, converted by molar mass. Read-outs that look alike come from different tables or passages of the source.
Legend:
bovine trypsin = target: T1, bovine trypsin (Bos taurus, UniProt P00760); experiment: Kinetic assay for the inhibition constant (Ki), trypsin; assay type: biochemical
T1 construct: purchased Sigma-Aldrich
T1 sequence (P00760 24-246): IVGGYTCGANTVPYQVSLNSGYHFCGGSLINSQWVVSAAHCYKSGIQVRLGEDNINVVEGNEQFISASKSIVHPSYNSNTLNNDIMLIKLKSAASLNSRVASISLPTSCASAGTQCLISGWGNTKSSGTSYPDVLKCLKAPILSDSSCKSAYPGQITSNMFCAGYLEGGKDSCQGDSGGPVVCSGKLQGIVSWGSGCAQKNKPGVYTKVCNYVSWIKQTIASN
Protocol: (§1) The inhibitory activities against these proteases were tested at a peptide concentration ranging from 0.1 μM to 100 μM.
(§2) (a) Bovine trypsin; (b) matriptase; (c) chymotrypsin; (d) mesotrypsin; (e) human proteasome 20s. The activity of each protease was assayed in the presence of each peptide ranging from 0.1 μM to 100 μM in PBS (pH 7.4) and the corresponding substrate: Z-Gly-Gly-Arg-NHMec (trypsin); Suc-Ala-Ala-Pro-Phe-NHMec (chymotrypsin); Boc-Gln-Ala-Arg-AMC (matriptase); Mca-Arg-Pro-Val-Glu-Nval-Trp-Arg-Lys(Dnp)-NH2 (mesotrypsin); Suc-Leu-Leu-Val-Tyr-AMC (human proteasome 20s).
(§3) Kinetic assays for the inhibition constant (Ki). […] Inhibitory activities against the proteases of the peptides were tested using previously published papers and manufacturers’ instructions from 0.1 μM to 100 μM in PBS (pH 7.4). Wells of a black microtiter plate were loaded with designed different concentrations of peptide solution. […] For the human proteasome 20s, florescent was read after 15 min pre-incubation. The fluorescent products’ formation rate was measured continuously at 37 °C in the kinetic model using a multi-detection microplate reader (BMG Labtech, Ortenberg, Germany). […] Assays were repeated individually three times, and the Ki was calculated by non-linear regression (Morrison equation) using GraphPad Prism.

human matriptase-1 = target: T2, human matriptase-1 (Homo sapiens, UniProt Q9Y5Y6); experiment: Kinetic assay for the inhibition constant (Ki), matriptase; assay type: biochemical
T2 construct: purchased R&D systems
T2 sequence (Q9Y5Y6 1-855): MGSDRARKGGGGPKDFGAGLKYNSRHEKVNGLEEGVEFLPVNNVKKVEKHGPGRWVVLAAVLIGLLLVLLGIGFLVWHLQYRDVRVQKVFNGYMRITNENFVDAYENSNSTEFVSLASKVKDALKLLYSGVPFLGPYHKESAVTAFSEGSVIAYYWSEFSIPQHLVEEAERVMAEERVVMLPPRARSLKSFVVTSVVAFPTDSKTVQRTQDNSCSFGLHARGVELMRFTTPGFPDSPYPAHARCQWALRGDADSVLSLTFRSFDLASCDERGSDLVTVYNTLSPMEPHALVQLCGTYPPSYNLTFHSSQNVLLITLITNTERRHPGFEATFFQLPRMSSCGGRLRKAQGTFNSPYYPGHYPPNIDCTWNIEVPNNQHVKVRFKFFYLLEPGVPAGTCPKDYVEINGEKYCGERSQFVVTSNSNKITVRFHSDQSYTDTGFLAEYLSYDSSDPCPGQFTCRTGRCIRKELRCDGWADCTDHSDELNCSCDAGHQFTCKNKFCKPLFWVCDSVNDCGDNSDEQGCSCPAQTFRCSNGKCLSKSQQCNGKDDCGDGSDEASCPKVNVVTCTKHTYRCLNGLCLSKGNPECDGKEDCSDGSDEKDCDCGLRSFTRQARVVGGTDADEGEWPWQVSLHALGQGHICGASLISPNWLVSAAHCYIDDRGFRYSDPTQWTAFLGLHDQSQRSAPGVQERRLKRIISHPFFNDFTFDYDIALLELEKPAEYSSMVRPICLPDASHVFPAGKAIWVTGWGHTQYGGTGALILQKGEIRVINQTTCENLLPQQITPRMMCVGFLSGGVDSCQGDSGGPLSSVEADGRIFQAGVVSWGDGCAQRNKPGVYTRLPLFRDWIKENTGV
Protocol: as §1, §2, §3

chymotrypsin = chymotrypsin (Bos taurus, UniProt P00766); experiment: biochemical
Protocol: as §1, §2, §3

mesotrypsin = target: T3, mesotrypsin (Homo sapiens, UniProt P35030); experiment: Kinetic assay for the inhibition constant (Ki), mesotrypsin; assay type: biochemical
T3 construct: purchased R&D systems
T3 sequence (P35030 1-304): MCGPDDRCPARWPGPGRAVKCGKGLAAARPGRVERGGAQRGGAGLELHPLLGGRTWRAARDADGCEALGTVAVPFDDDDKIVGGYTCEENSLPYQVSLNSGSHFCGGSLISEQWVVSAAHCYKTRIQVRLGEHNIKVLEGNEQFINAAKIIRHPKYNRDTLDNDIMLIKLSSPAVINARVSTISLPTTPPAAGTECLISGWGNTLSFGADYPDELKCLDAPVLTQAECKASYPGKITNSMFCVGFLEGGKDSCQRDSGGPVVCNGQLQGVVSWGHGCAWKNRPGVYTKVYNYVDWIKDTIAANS
Protocol: as §1, §2, §3

human proteasome 20s = target: T4, human proteasome 20s (Homo sapiens, UniProt P28074); experiment: Kinetic assay for the inhibition constant (Ki), 20s proteasome; assay type: biochemical
T4 construct: purchased Biochem, Boston, MA, USA
Protocol: as §1, §2, §3

[1] = test system: Candida albicans (NCPF 1467)
Protocol: (§4) The antimicrobial activities of the five peptides were assessed by determining their minimal inhibitory concentrations (MICs) against three standard microorganisms, the Gram-positive bacterium Staphylococcus aureus (NCTC 10788) and the Gram-negative bacterium Escherichia coli (NCTC 10418), and the opportunistic pathogen yeast Candida albicans (NCPF 1467).
(§5) Minimal inhibitory concentration assay. Antimicrobial activities of the peptides were monitored by determining their minimal inhibitory concentrations (MICs) using three standard microorganisms, which were Gram-positive bacterium Staphylococcus aureus (NCTC 10788), Gram-negative bacterium Escherichia coli (NCTC 10418), and opportunistic pathogen yeast Candida albicans (NCPF 1467). The peptides were dissolved in physiological PBS, two-fold diluted to obtain a series of concentrations, and added into wells of 96-well microtiter plates. The respective concentrations of peptides and controls were incubated with microorganism cultures (5 × 10^5 colony-forming units/mL) for 18 h at 37 °C in a humidified atmosphere. Then, the growth of microorganisms was detected by measuring optical density at λ = 550 nm using an absorbance reader (BioTek Instruments, Winooski, VT, USA). MIC was defined as the minimum concentration of peptide at which no growth was detectable.

[2] = test system: Escherichia coli (NCTC 10418)
Protocol: as §4, §5

[3] = test system: Staphylococcus aureus (NCTC 10788)
Protocol: as §4, §5

[4] = two-fold dilutions in PBS, 5 × 10^5 CFU/mL, 18 h at 37 °C, OD 550 nm, highest concentration 512 μg/mL

Compound | Ki (bovine trypsin; bovine trypsin, peptide 0.1-100 μM in PBS pH 7.4, substrate Z-Gly-Gly-Arg-NHMec 45 μM, 37 °C, continuous fluorescence, Morrison equation, three independent experiments, each in duplicate, NI = no inhibition, read-out: Ki Trypsin) [µM] | Ki (human matriptase-1) [µM] | Ki (chymotrypsin) [µM] | Ki (mesotrypsin) [µM] | Ki (human proteasome 20s; read-out: Ki 20s Proteasome, peptide 0.1-100 μM in PBS pH 7.4, substrate Suc-Leu-Leu-Val-Tyr-AMC 20 μM, 15 min pre-incubation, 37 °C, fluorescence, Morrison equation, three independent experiments, each in duplicate, NI = no inhibition) [µM] | MIC C. albicans, given in μM ([1]; same MIC as 256 μg/mL, printed in molar unit, 18 h at 37 °C, OD 550 nm) [µM] | MIC C. albicans (NCPF 1467) [1, 4] [µg/mL] | MIC E. coli (NCTC 10418) [2, 4] [µg/mL] | MIC S. aureus (NCTC 10788) [3, 4] [µg/mL] | Ki (bovine trypsin) [µM] | Ki (human matriptase-1; human matriptase, peptide 0.1-100 μM in PBS pH 7.4, substrate Boc-Gln-Ala-Arg-AMC 20 μM, 37 °C, continuous fluorescence, Morrison equation, three independent experiments, each in duplicate, NI = no inhibition, read-out: Ki Matriptase) [µM] | Ki (mesotrypsin; peptide 0.1-100 μM in PBS pH 7.4, substrate Mca-Arg-Pro-Val-Glu-Nval-Trp-Arg-Lys(Dnp)-NH2 20 μM, 37 °C, continuous fluorescence, Morrison equation, three independent experiments, each in duplicate, NI = no inhibition, read-out: Ki Mesotrypsin) [µM] | Ki (human proteasome 20s; peptide 0.1-100 μM in PBS pH 7.4, substrate Suc-Leu-Leu-Val-Tyr-AMC 20 μM, 15 min pre-incubation, 37 °C, fluorescence, Morrison equation, three independent experiments, each in duplicate, NI = no inhibition, read-out: Ki 20s Proteasome) [µM] | MIC C. albicans (NCPF 1467) ([1]; NCPF 1467, 18 h) [µg/mL] | MIC E. coli (NCTC 10418) ([2]; NCTC 10418, 18 h) [µg/mL] | MIC S. aureus (NCTC 10788) ([3]; NCTC 10788, 18 h) [µg/mL]
CC(C)C[C@H](NC(=O)[C@@H]1CSSC[C@H](NC(=O)CNC(=O)[C@H](CCCNC(=N)N)NC(=O)[C@H](CC(C)C)NC(=O)[C@H](Cc2ccccc2)NC(=O)CN)C(=O)N[C@@H](Cc2c[nH]c3ccccc23)C(=O)N[C@@H]([C@@H](C)O)C(=O)N[C@@H](CCCCN)C(=O)N[C@@H](CO)C(=O)N[C@@H](Cc2ccccc2)C(=O)N2CCC[C@H]2C(=O)N2CCC[C@H]2C(=O)N[C@@H](CCCCN)C(=O)N2CCC[C@H]2C(=O)N1)C(N)=O [livisin-NH2] | 0.424 | 2.36 | 144 | 18.6 | > 100 | 132 (≈ 255 µg/mL) | 256 (≈ 132 µM) | >512 | >512 | – | – | – | – | – | – | –
CC(C)C[C@H](NC(=O)[C@@H]1CSSC[C@H](NC(=O)CNC(=O)[C@H](CCCNC(=N)N)NC(=O)[C@H](CC(C)C)NC(=O)[C@H](Cc2ccccc2)NC(=O)CN)C(=O)N[C@@H](Cc2c[nH]c3ccccc23)C(=O)N[C@@H]([C@@H](C)O)C(=O)N[C@@H](CCCNC(=N)N)C(=O)N[C@@H](CO)C(=O)N[C@@H](Cc2ccccc2)C(=O)N2CCC[C@H]2C(=O)N2CCC[C@H]2C(=O)N[C@@H](CCCCN)C(=O)N2CCC[C@H]2C(=O)N1)C(=O)O [livisin-Arg] | – | – | 74.7 | – | – | – | – | – | – | 1.02 | 46.9 | 32.1 | > 100 | >512 | >512 | >512

— paper PMC9030697, “Engineering and Structural Insights of a Novel BBI-like Protease Inhibitor Livisin from the Frog Skin Secretion” (Toxins, 2022)
